pIC50: −log10 of the molar value. Read-outs that look alike come from different tables or passages of the source.
Test system: human primary T-cells, IL-2 stimulated proliferation (JAK-1 and JAK-3 dependent; reported as JAK3 activity)
Assay: Human primary T-cell proliferation stimulated by IL-2 (Example 3)
Type: cell-based
Details: tested under conditions described in Example 3 (IL-2 stimulated human primary T-cell proliferation), read-out: ability to inhibit JAK3 activity, IC50 range (Table V)
Procedure, shortened: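 Peripheral-blood human T-cells pre-activated via TCR/CD28, IL-2-starved overnight, then cultured 72 h at 37 °C with compound in Yssel's medium containing IL-2 (80 U/mL in cell suspension). Proliferation read as viable-cell ATP by CellTiter-Glo luminescence; reduction versus control taken as JAK pathway inhibition.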

| SMILES | pIC50 (Homo sapiens, T-cell) | pIC50 |
| --- | --- | --- |
| CCOc1ccc(Nc2ncc(C)c(Nc3ccc4oc(=O)[nH]c4c3)n2)cc1Cl [Compound I-194, 5-[2-(3-Chloro-4-ethoxy-phenylamino)-5-methyl-pyrimidin-4-ylamino]-3H-benzooxazol-2-one] | > 6.30 |  |
| Cc1cnc(Nc2ccc(OCC3CCC3)cc2)nc1Nc1ccc2oc(=O)[nH]c2c1 [Compound I-195, 5-[2-(4-Cyclobutylmethoxy-phenylamino)-5-methyl-pyrimidin-4-ylamino]-3H-benzooxazol-2-one] | > 6.30 |  |
| Cc1cnc(Nc2ccc(OCC(C)C)cc2)nc1Nc1ccc2oc(=O)[nH]c2c1 [Compound I-196, 5-[2-(4-Isobutoxy-phenylamino)-5-methyl-pyrimidin-4-ylamino]-3H-benzooxazol-2-one] | > 6.30 |  |
| Cc1cnc(Nc2ccc(OCCC(C)C)cc2)nc1Nc1ccc2oc(=O)[nH]c2c1 [Compound I-197, 5-{5-Methyl-2-[4-(3-methyl-butoxy)-phenylamino]-pyrimidin-4-ylamino}-3H-benzooxazol-2-one] | < 5.00 |  |
| Cc1cc(F)cc(Nc2ncc(C)c(Nc3ccc4oc(=O)[nH]c4c3)n2)c1 [Compound I-199, 5-[2-(3-Fluoro-5-methyl-phenylamino)-5-methyl-pyrimidin-4-ylamino]-3H-benzooxazol-2-one] | > 6.30 |  |
| COc1c(F)ccc(Nc2ncc(C)c(Nc3ccc4oc(=O)[nH]c4c3)n2)c1F [Compound I-200, 5-[2-(2,4-Difluoro-3-methoxy-phenylamino)-5-methyl-pyrimidin-4-ylamino]-3H-benzooxazol-2-one] | > 6.30 |  |
| Cc1cnc(Nc2ccc(C(C)N3CCC3)cc2)nc1Nc1ccc2oc(=O)[nH]c2c1 (stereo not shown) [Compound I-201, 5-(2-(4-(1-(azetidin-1-yl)ethyl)phenylamino)-5-methylpyrimidin-4-ylamino)benzo[d]oxazol-2(3H)-one] | > 6.30 |  |
| Cc1cnc(Nc2ccc(C(C)NC3CC3)cc2)nc1Nc1ccc2oc(=O)[nH]c2c1 (stereo not shown) [Compound I-202, 5-(2-(4-(1-(cyclopropylamino)ethyl)phenylamino)-5-methylpyrimidin-4-ylamino)benzo[d]oxazol-2(3H)-one] | > 6.30 |  |
| Cc1cnc(Nc2ccc(C(C)N3CCCC3)cc2)nc1Nc1ccc2oc(=O)[nH]c2c1 (stereo not shown) [Compound I-203, 5-(5-methyl-2-(4-(1-(pyrrolidin-1-yl)ethyl)phenylamino)pyrimidin-4-ylamino)benzo[d]oxazol-2(3H)-one] | > 6.30 |  |
| Cc1cnc(Nc2ccc(C(C)N3CCOCC3)cc2)nc1Nc1ccc2oc(=O)[nH]c2c1 (stereo not shown) [Compound I-204, 5-(5-methyl-2-(4-(1-morpholinoethyl)phenylamino)pyrimidin-4-ylamino)benzo[d]oxazol-2(3H)-one] | > 6.30 |  |
| CCN(CC)C1CCN(C(C)c2ccc(Nc3ncc(C)c(Nc4ccc5oc(=O)[nH]c5c4)n3)cc2)C1 (stereo not shown) [Compound I-205, 5-(2-(4-(1-(3-(diethylamino)pyrrolidin-1-yl)ethyl)phenylamino)-5-methylpyrimidin-4-ylamino)benzo[d]oxazol-2(3H)-one] | > 6.30 |  |
| Cc1cnc(Nc2ccc(C(C)NCc3ccccc3)cc2)nc1Nc1ccc2oc(=O)[nH]c2c1 (stereo not shown) [Compound I-206, 5-(2-(4-(1-(benzylamino)ethyl)phenylamino)-5-methylpyrimidin-4-ylamino)benzo[d]oxazol-2(3H)-one] | > 6.30 |  |
| Cc1cnc(Nc2ccc(C(C)NC(C)C)cc2)nc1Nc1ccc2oc(=O)[nH]c2c1 (stereo not shown) [Compound I-207, 5-(2-(4-(1-(isopropylamino)ethyl)phenylamino)-5-methylpyrimidin-4-ylamino)benzo[d]oxazol-2(3H)-one] | > 6.30 |  |
| CCCNC(C)c1cccc(Nc2ncc(C)c(Nc3ccc4oc(=O)[nH]c4c3)n2)c1 (stereo not shown) [Compound I-208, 5-(5-methyl-2-(3-(1-(propylamino)ethyl)phenylamino)pyrimidin-4-ylamino)benzo[d]oxazol-2(3H)-one] | > 6.30 |  |
| Cc1cnc(Nc2cccc(C(C)NC(C)C)c2)nc1Nc1ccc2oc(=O)[nH]c2c1 (stereo not shown) [Compound I-209, 5-(2-(3-(1-(isopropylamino)ethyl)phenylamino)-5-methylpyrimidin-4-ylamino)benzo[d]oxazol-2(3H)-one] | > 6.30 |  |
| Cc1cnc(Nc2cccc(C(C)N3CCC3)c2)nc1Nc1ccc2oc(=O)[nH]c2c1 (stereo not shown) [Compound I-211, 5-(2-(3-(1-(azetidin-1-yl)ethyl)phenylamino)-5-methylpyrimidin-4-ylamino)benzo[d]oxazol-2(3H)-one] | > 6.30 |  |
| Cc1cnc(Nc2cccc(C(C)N3CCCC3)c2)nc1Nc1ccc2oc(=O)[nH]c2c1 (stereo not shown) [Compound I-212, 5-(5-methyl-2-(3-(1-(pyrrolidin-1-yl)ethyl)phenylamino)pyrimidin-4-ylamino)benzo[d]oxazol-2(3H)-one] | > 6.30 |  |

| SMILES | pIC50 (Homo sapiens, T-cell) | pIC50 |
| --- | --- | --- |
| Cc1cnc(Nc2cccc(C(C)NCc3ccccc3)c2)nc1Nc1ccc2oc(=O)[nH]c2c1 (stereo not shown) [Compound I-213, 5-(2-(3-(1-(benzylamino)ethyl)phenylamino)-5-methylpyrimidin-4-ylamino)benzo[d]oxazol-2(3H)-one] | > 6.30 |  |
| CCN(CC)C1CCN(C(C)c2cccc(Nc3ncc(C)c(Nc4ccc5oc(=O)[nH]c5c4)n3)c2)C1 (stereo not shown) [Compound I-214, 5-(2-(3-(1-(3-(diethylamino)pyrrolidin-1-yl)ethyl)phenylamino)-5-methylpyrimidin-4-ylamino)benzo[d]oxazol-2(3H)-one] | > 6.30 |  |
| Cc1cnc(Nc2cccc(C(C)N3CCCCC3)c2)nc1Nc1ccc2oc(=O)[nH]c2c1 (stereo not shown) [Compound I-215, 5-(5-methyl-2-(3-(1-(piperidin-1-yl)ethyl)phenylamino)pyrimidin-4-ylamino)benzo[d]oxazol-2(3H)-one] | > 6.30 |  |
| CCN(CC)C(C)c1cccc(Nc2ncc(C)c(Nc3ccc4oc(=O)[nH]c4c3)n2)c1 (stereo not shown) [Compound I-216, 5-(2-(3-(1-(diethylamino)ethyl)phenylamino)-5-methylpyrimidin-4-ylamino)benzo[d]oxazol-2(3H)-one] | > 6.30 |  |
| Cc1cnc(Nc2cccc(C(C)N3CCOCC3)c2)nc1Nc1ccc2oc(=O)[nH]c2c1 (stereo not shown) [Compound I-217, 5-(5-methyl-2-(3-(1-morpholinoethyl)phenylamino)pyrimidin-4-ylamino)benzo[d]oxazol-2(3H)-one] | > 6.30 |  |
| Cc1cnc(Nc2ccc(C(=O)NC3CCC3)c(C(F)(F)F)c2)nc1Nc1ccc2oc(=O)[nH]c2c1 [Compound I-218, N-cyclobutyl-4-(5-methyl-4-(2-oxo-2,3-dihydrobenzo[d]oxazol-5-ylamino)pyrimidin-2-ylamino)-2-(trifluoromethyl)benzamide] | > 6.30 |  |
| Cc1cnc(Nc2ccc(C(=O)Nc3ccccc3)c(C(F)(F)F)c2)nc1Nc1ccc2oc(=O)[nH]c2c1 [Compound I-219, 4-(5-methyl-4-(2-oxo-2,3-dihydrobenzo[d]oxazol-5-ylamino)pyrimidin-2-ylamino)-N-phenyl-2-(trifluoromethyl)benzamide] | > 6.30 |  |
| COc1cc(Nc2ncc(C)c(Nc3ccc4oc(=O)[nH]c4c3)n2)ccc1C(=O)NC1CC1 [Compound I-220, N-cyclopropyl-2-methoxy-4-(5-methyl-4-(2-oxo-2,3-dihydrobenzo[d]oxazol-5-ylamino)pyrimidin-2-ylamino)benzamide] | > 6.30 |  |
| COc1cc(Nc2ncc(C)c(Nc3ccc4oc(=O)[nH]c4c3)n2)ccc1C(=O)Nc1ccccc1 [Compound I-221, 2-methoxy-4-(5-methyl-4-(2-oxo-2,3-dihydrobenzo[d]oxazol-5-ylamino)pyrimidin-2-ylamino)-N-phenylbenzamide] | > 6.30 |  |
| Cc1cnc(Nc2ccc(C(=O)O)c(C(F)(F)F)c2)nc1Nc1ccc2oc(=O)[nH]c2c1 [Compound I-222, 4-(5-methyl-4-(2-oxo-2,3-dihydrobenzo[d]oxazol-5-ylamino)pyrimidin-2-ylamino)-2-(trifluoromethyl)benzoic acid] | 5.30 to 6.30 |  |
| Cc1cnc(Nc2ccc(C(=O)NC3CC3)c(C(F)(F)F)c2)nc1Nc1ccc2oc(=O)[nH]c2c1 [Compound I-223, N-cyclopropyl-4-(5-methyl-4-(2-oxo-2,3-dihydrobenzo[d]oxazol-5-ylamino)pyrimidin-2-ylamino)-2-(trifluoromethyl)benzamide] | > 6.30 |  |
| Cc1cnc(Nc2cc(OCC(C)C)cc(C(F)(F)F)c2)nc1Nc1ccc2oc(=O)[nH]c2c1 [Compound I-224, -(2-(3-isobutoxy-5-(trifluoromethyl)phenylamino)-5-methylpyrimidin-4-ylamino)benzo[d]oxazol-2(3H)-one] |  | 5.30 to 6.30 |
| Cc1cnc(Nc2cc(OCC3CC3)cc(C(F)(F)F)c2)nc1Nc1ccc2oc(=O)[nH]c2c1 [Compound I-225, 5-(2-(3-(cyclopropylmethoxy)-5-(trifluoromethyl)phenylamino)-5-methylpyrimidin-4-ylamino)benzo[d]oxazol-2(3H)-one] | 5.30 to 6.30 |  |
| Cc1cnc(Nc2cc(OC3CCC3)cc(C(F)(F)F)c2)nc1Nc1ccc2oc(=O)[nH]c2c1 [Compound I-226, 5-(2-(3-cyclobutoxy-5-(trifluoromethyl)phenylamino)-5-methylpyrimidin-4-ylamino)benzo[d]oxazol-2(3H)-one] | 5.30 to 6.30 |  |
| Cc1cnc(Nc2cc(OCC3CCC3)cc(C(F)(F)F)c2)nc1Nc1ccc2oc(=O)[nH]c2c1 [Compound I-227, 5-(2-(3-(cyclobutylmethoxy)-5-(trifluoromethyl)phenylamino)-5-methylpyrimidin-4-ylamino)benzo[d]oxazol-2(3H)-one] | 5.30 to 6.30 |  |
| COc1cc(Nc2ncc(C)c(Nc3ccc4oc(=O)[nH]c4c3)n2)cc(C(F)(F)F)c1 [Compound I-228, 5-(2-(3-deuteratedmethoxy-5-(trifluoromethyl)phenylamino)-5-methylpyrimidin-4-ylamino)benzo[d]oxazol-2(3H)-one] |  | > 6.30 |
| COc1cc(Nc2ncc(C)c(Nc3ccc4oc(=O)[nH]c4c3)n2)cc(C(C)=O)c1 [Compound I-229, 5-(2-(3-acetyl-5-methoxyphenylamino)-5-methylpyrimidin-4-ylamino)benzo[d]oxazol-2(3H)-one] | > 6.30 |  |

Reference: patent US10005767B2, “Compositions and methods for inhibition of the JAK pathway” (Rigel Pharmaceuticals, Inc., priority 2009, dated 2018)
